The text below walks through data of patent US10968232B2 (Merck Sharp & Dohme Corp., priority 2016, dated 2021).

The experiment deals with T1, human GPR40 (Homo sapiens, UniProt O14842).
T1 construct: expressed in transfected cells
T1 sequence (O14842 whole entry): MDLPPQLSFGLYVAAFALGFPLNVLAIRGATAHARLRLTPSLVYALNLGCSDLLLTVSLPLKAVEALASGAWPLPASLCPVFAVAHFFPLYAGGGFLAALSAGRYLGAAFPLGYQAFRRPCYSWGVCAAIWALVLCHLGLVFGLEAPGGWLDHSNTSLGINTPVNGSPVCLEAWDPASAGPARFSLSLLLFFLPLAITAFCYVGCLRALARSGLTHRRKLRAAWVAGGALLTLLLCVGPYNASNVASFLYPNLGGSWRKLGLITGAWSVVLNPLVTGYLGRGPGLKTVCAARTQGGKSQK
In words: Inositol Phosphate Turnover (IP1) Assay. Conditions: HEK cells stably expressing human GPR40; CisBio IP-One kit; 60 minutes at 37 degrees; read-out: Human IP1 EC50. The class given is cell-based. In short, it runs like this: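 HEK cells stably expressing GPR40, plated 16 h, then exposed to compound in stimulation buffer for 60 min at 37 °C. IP1 accumulation read by HTRF IP-One detection after 60 min at RT.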
Take `C[C@H](C(=O)O)[C@H](c1ccc2c(c1)OC1(CC2)CCC(N(C)c2cc(C(F)(F)F)ccc2C(F)(F)F)CC1)C1CC1` (stereo partly drawn) [Example 66, (2S,3R)-3-(4′-((2,5-bis (trifluoromethyl)phenyl) (methyl)amino)spiro [chroman-2,1′-cyclohexan]-7-yl)-3-cyclopropyl-2-methylpropanoic acid]: the EC50 (as a rule, the concentration at which the effect is half-maximal) is 4.27 nM.

For `CC(c1cc(-c2ccoc2)ccc1OC(F)(F)F)N1CCC2(CCc3ccc([C@H](C4CC4)[C@H](C)C(=O)O)cc3O2)CC1` (single isomer, unassigned) [Example 117, (2S,3R)-3-cyclopropyl-3-(1′-((R or S)-1-(5-(furan-3-yl)-2-(trifluoro-methoxy)-phenyl)ethyl)spiro[chroman-2,4′-piperidin]-7-yl)-2-methylpropanoic acid], the EC50 was 36.9 nM.

Turning to `CC(c1ncccc1C(F)(F)F)N1CCC2(CCc3ccc([C@H](C4CC4)[C@H](C)C(=O)O)cc3O2)CC1` (single isomer, unassigned) [Example 44, (2S,3R)-3-cyclo-propyl-2-methyl-3-(1′-((R or S)-1-(3-(trifluoromethyl)pyridin-2-yl)ethyl)spiro-[chroman-2,4′-piperidin]-7-yl)propanoic acid], the EC50 was 311 nM.

With `CC(c1cc(C2CC2)ccc1C(F)(F)F)N1CCC2(CCc3ccc([C@H](C4CC4)[C@H](C)C(=O)O)cc3O2)CC1` (single isomer, unassigned) [Example 58, (2S,3R)-3-cyclopropyl-3-(1′-((S or R)-1-(5-cyclo-propyl-2-(trifluoromethyl)-phenyl)ethyl)-spiro [chroman-2,4′-piperidin]-7-yl)-2-methylpropanoic acid], the EC50 was 4.43 nM.

For `C[C@H](C(=O)O)[C@H](c1ccc2c(c1)OC1(CC2)CC2(CN([C@H](C)c3cc(C(F)(F)F)ccc3C(F)(F)F)C2)C1)C1CC1` [Example 126, (2S,3R)-3-cyclopropyl-3-(2,2-(R)-2-(1-(2,5-bis(trifluoromethyl)phenyl)ethyl)-2-azaspiro[3.3]heptane-chroman-7-yl)-2-methylpropanoic Acid], the EC50 was 8.52 nM.

With `C[C@H](C(=O)O)[C@H](c1ccc2c(c1)OC1(CCCN([C@@H](C)c3cc(C(F)(F)F)ccc3C(F)(F)F)C1)CC2)C1CC1` (single isomer, unassigned) [Example 75, (2S,3R)-3-((S or R)-1′-((S)-1-(2,5-bis (trifluoromethyl)phenyl)-ethyl)spiro[chroman-2,3′-piperidin]-7-yl)-3-cyclopropyl-2-methylpropanoic acid], the EC50 turned out to be 0.374 nM.

On to `CC(c1cc(Cl)ccc1F)N1CCC2(CCc3ccc([C@H](C4CC4)[C@H](C)C(=O)O)cc3O2)CC1` (single isomer, unassigned) [Example 78, (2S,3R)-3-(1′-((R or S)-1-(5-chloro-2-fluorophenyl)ethyl)spiro[chroman-2,4′-piperidin]-7-yl)-3-cyclopropyl-2-methylpropanoic Acid], for which the EC50 was 14.3 nM.

For `C[C@H](C(=O)O)[C@H](c1ccc2c(c1)OC1(CC2)[C@@H]2CC[C@H]1CN([C@@H](C)c1cc(F)ccc1C(F)(F)F)C2)C1CC1` (single isomer, unassigned) [Example 85], the EC50 is 36.2 nM.

`C[C@H](C(=O)O)[C@H](c1ccc2c(c1)OC1(CC2)CCC(N(C)c2ncccc2C(F)(F)F)CC1)C1CC1` (single isomer, unassigned) [Example 63]: the EC50 is 2.98 nM.

For the molecule `CC(c1cc(Cl)ccc1OC(F)F)N1CCC2(CCc3ccc([C@H](C4CC4)[C@H](C)C(=O)O)c(F)c3O2)CC1` (single isomer, unassigned) [Example 33, (2S,3R)-3-(1′-((R or S)-1-(5-chloro-2-(difluoromethoxy)phenyl)ethyl)-8-fluorospiro-[chroman-2,4′-piperidin]-7-yl)-3-cyclopropyl-2-methylpropanoic Acid], the EC50 turned out to be 50 nM.

Consider `Cc1nocc1-c1ccc(OC(F)(F)F)c(C(C)N2CCC3(CCc4ccc([C@H](C5CC5)[C@H](C)C(=O)O)cc4O3)CC2)c1` (single isomer, unassigned) [Example 115, (2S,3R)-3-cyclopropyl-2-methyl-3-(1′-((R or S)-1-(5-(3-methylisoxazol-4-yl)-2-(trifluoromethoxy)phenyl)eth-yl)spiro[chroman-2,4′-piperidin]-7-yl)propanoic acid], for which the 50% effective concentration (EC50) amounted to 41.7 nM.

Turning to `C[C@H](C(=O)O)[C@H](c1ccc2c(c1)OC1(CC2)CCN(c2cccnc2C(F)(F)F)CC1)C1CC1` [Example 22, sodium (2S,3R)-3-cyclopropyl-2-methyl-3-(1′-(2-(trifluoromethyl)pyridin-3-yl)spiro[chroman-2,4′-piperidin]-7-yl)propanoate], the EC50 is 38.3 nM.

For `C[C@H](C(=O)O)[C@H](c1ccc2c(c1F)OC1(CC2)CCN(Cc2cc(F)ccc2OC(F)(F)F)CC1)C1CC1` [Example 3, (2S,3R)-3-cyclopropyl-3-(8-fluoro-1′-(5-fluoro-2-(trifluoromethoxy)-benzyl)spiro[chroman-2,4′-piperidin]-7-yl)-2-methylpropanoic acid], the half-maximal effective concentration (EC50) came to 11.7 nM.

On to `C[C@H](C(=O)O)[C@H](c1ccc2c(c1)OC1(CC2)[C@@H]2CC[C@H]1CN([C@H](C)c1cc(C(F)(F)F)ccc1C(F)(F)F)C2)C1CC1` (single isomer, unassigned) [Example 81], for which the EC50 was determined as 102 nM.

As for `C[C@H](C(=O)O)[C@H](c1ccc2c(c1)OC1(CC2)CCN([C@@H](C)c2nccnc2C(F)(F)F)CC1)C1CC1` (mixture of isomers) [Example 125, (2S,3R)-3-cyclopropyl-2-methyl-3-(1′-((RS)-1-(3-(trifluoromethyl)pyrazin-2-yl)ethyl)spiro[chroman-2,4′-piperidin]-7-yl)propanoic Acid], the EC50 came out at 415 nM.

Turning to `CC(c1cc(Cl)ccc1OC(F)(F)F)N1CCC2(CCc3ccc([C@H](C4CC4)[C@H](C)C(=O)O)c(F)c3O2)CC1` (stereo partly drawn) [Example 21, (2S,3R)-3-(1′-(1-(5-chloro-2-(trifluoromethoxy)phenyl)ethyl)-8-fluorospiro[chroman-2,4′-piperidin]-7-yl)-3-cyclopropyl-2-methylpropanoic Acid], the concentration giving a half-maximal response (EC50) is 3.66 nM.

As to `C[C@H](C(=O)O)[C@H](c1ccc2c(c1)OC1(CC2)CCN(c2ccnc(C(F)(F)F)c2)CC1)C1CC1` [Example 40, (2S,3R)-3-cyclopropyl-2-methyl-3-(1′-(2-(trifluoromethyl)pyridin-4-yl)spiro-[chroman-2,4′-piperidin]-7-yl)propanoic Acid], the EC50 came to 167 nM.

Regarding `C[C@H](C(=O)O)[C@H](c1ccc2c(c1)OC1(CCCN([C@@H](C)c3cc(C(F)(F)F)ccc3C(F)(F)F)CC1)CC2)C1CC1` (single isomer, unassigned) [Example 52, (2S,3R)-3-((S or R)-1-((S)-1-(2,5-bis (trifluoromethyl)phenyl)ethyl)spiro[azepane-4,2′-chroman]-7′-yl)-3-cyclopropyl-2-methylpropanoic acid], the EC50 worked out at 2.66 nM.

Turning to `C[C@H](C(=O)O)[C@H](c1ccc2c(c1)OC1(CC2)[C@@H]2CC[C@H]1CN([C@@H](C)c1cc(F)ccc1C(F)(F)F)C2)C1CC1` (single isomer, unassigned) [Example 82], the EC50 is 249 nM.

For `C[C@H](C(=O)O)[C@H](c1ccc2c(c1)OC1(CC2)CCN(Cc2cn(C)nc2C(F)(F)F)CC1)C1CC1` [Example 72, (2S,3R)-3-cyclopropyl-2-methyl-3-(1′-((1-methyl-3-(trifluoromethyl)-1H-pyrazol-4-yl)methyl)spiro[chroman-2,4′-piperidin]-7-yl)propanoic Acid], the EC50 was 995 nM.

Turning to `C[C@H](C(=O)O)[C@H](c1ccc2c(c1)OC1(CC2)CC(NCc2cc(C(F)(F)F)ccc2C(F)(F)F)C1)C1CC1` (single isomer, unassigned) [Example 96], the EC50 stood at 12.3 nM.

In the case of `CC(c1cc(F)ccc1OC(F)(F)F)N1CCC2(CCc3ccc([C@H](C4CC4)[C@H](C)C(=O)O)c(F)c3O2)CC1` (stereo partly drawn) [Example 2, (2S,3R)-3-cyclopropyl-3-(8-fluoro-1′-(1-(5-fluoro-2-(trifluoro-methoxy)phenyl)ethyl)-spiro[chroman-2,4′-piperidin]-7-yl)-2-methylpropanoic acid], the EC50 was determined as 3.29 nM.

In the case of `C[C@H](C(=O)O)[C@H](c1ccc2c(c1)OC1(CC2)[C@@H]2CC[C@H]1CN([C@@H](C)c1cc(C(F)(F)F)ccc1C(F)(F)F)C2)C1CC1` (stereo partly drawn) [Example 86, (2S,3R)-3-((1R,5S)-3-((S)-1-(2,5-bis(trifluoro-methyl)phenyl)ethyl)-3-azaspiro[bicyclo[3.2.1]oc-tane-8,2′-chroman]-7′-yl)-3-cyclopropyl-2-methylpropanic acid], the EC50 stood at 46.5 nM.

In the case of `CC(c1cc(C(F)(F)F)ccc1F)N1CCC2(CCc3ccc([C@H](C4CC4)[C@H](C)C(=O)O)cc3O2)CC1` (mixture of isomers) [Example 28, (2S,3R)-3-cyclopropyl-3-(1′-((RS)-1-(2-fluoro-5-(trifluoromethyl)phenyl)ethyl)spiro[chroman-2,4′-piperidin]-7-yl)-2-methylpropanoic acid], the EC50 stood at 11 nM.

Consider `C[C@H](C(=O)O)[C@H](c1ccc2c(c1)OC1(CC2)CCC(Nc2cc(C(F)(F)F)ccc2C(F)(F)F)CC1)C1CC1` (single isomer, unassigned) [Example 67], for which the EC50 is 1.12 nM.

For the molecule `CC(c1cc(C#N)ccc1OC(F)(F)F)N1CCC2(CCc3ccc([C@H](C4CC4)[C@H](C)C(=O)O)cc3O2)CC1` (stereo partly drawn) [Example 123, (2S,3R)-3-(1′-(1-(5-cyano-2-(trifluoromethoxy)phenyl)ethyl)spiro[chroman-2,4′-piperidin]-7-yl)-3-cyclopropyl-2-methylpropanoic Acid], the EC50 was found to be 30.4 nM.
